From patent US20030072828A1, “Natural therapeutic composition for the treatment of wounds and sores” (priority 2001, published 2003)

Legend:
[1] = Personal experience: general traits of components; settings: from personal experience
Text: (§1) From personal experience we have discovered the following traits associated with the specific components of the invention: […]

[2] = Personal experience: component topically applied to the skin of the face; assay type: in vivo
Text: as §1

[3] = Personal experience: component topically applied to scalds; assay type: in vivo
Text: as §1

O=C1O[C@H]([C@@H](O)CO)C(O)=C1O [Vitamin C]
trait of the component [1]: combating pain and inflammation

Vitamin A
appearance of the skin [2]: improved appearance of the skin

Vitamin E
pain and healing of the wound [3]: reduced pain and improved healing of the wound
